Results on seven compounds are retold here after paper PMC3117834 (PLoS ONE, 2011).

Common to all, as to format: biochemical
In assay [1] the target is T1, Hog1 (Saccharomyces cerevisiae, UniProt P32485).
T1 construct: pGEX-4T1 E. coli version also made
T1 sequence (P32485 2-435): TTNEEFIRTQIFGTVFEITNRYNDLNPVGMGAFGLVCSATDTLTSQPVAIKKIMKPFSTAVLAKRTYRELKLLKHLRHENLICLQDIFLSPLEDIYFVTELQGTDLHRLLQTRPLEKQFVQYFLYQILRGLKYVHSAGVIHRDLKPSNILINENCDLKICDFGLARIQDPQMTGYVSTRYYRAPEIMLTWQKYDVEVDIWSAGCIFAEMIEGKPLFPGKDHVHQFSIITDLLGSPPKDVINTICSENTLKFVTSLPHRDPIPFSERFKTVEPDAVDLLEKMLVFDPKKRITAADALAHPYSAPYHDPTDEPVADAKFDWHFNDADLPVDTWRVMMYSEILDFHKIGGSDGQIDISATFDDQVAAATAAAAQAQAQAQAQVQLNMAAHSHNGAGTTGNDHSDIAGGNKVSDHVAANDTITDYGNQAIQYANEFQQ
In words: […] kinase assay, Sic1 phosphorylation, autoradiography.

Assay [2] addresses T2, Pbs2 (Saccharomyces cerevisiae, UniProt P08018, M435A).
T2 construct: GST fusion (pGEX-4T1) from E. coli DH5alpha
T2 sequence (P08018 1-668 M435A): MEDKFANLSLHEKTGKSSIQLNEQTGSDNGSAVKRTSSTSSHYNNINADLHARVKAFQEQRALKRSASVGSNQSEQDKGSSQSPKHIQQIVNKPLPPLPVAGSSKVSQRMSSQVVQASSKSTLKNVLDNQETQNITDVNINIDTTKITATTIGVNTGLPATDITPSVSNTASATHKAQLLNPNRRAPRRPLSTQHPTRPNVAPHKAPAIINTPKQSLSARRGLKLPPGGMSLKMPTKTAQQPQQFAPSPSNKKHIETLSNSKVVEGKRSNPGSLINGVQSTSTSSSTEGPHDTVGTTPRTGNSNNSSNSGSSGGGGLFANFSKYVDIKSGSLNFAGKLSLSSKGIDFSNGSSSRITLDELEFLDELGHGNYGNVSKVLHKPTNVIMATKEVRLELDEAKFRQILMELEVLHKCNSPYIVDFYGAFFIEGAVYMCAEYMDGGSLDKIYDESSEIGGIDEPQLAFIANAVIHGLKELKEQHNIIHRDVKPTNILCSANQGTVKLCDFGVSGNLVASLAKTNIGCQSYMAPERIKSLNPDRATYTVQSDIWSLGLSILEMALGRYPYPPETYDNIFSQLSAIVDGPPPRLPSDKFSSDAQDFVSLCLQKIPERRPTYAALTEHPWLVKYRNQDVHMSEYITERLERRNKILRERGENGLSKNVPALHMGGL
Put plainly: […] kinase assay, Hog1 phosphorylation, autoradiography.

Assay [3] deals with T3, Hog1 (Saccharomyces cerevisiae, UniProt P32485, T100G).
T3 construct: pGEX-4T1 E. coli version also made
T3 sequence (P32485 2-435 T100G): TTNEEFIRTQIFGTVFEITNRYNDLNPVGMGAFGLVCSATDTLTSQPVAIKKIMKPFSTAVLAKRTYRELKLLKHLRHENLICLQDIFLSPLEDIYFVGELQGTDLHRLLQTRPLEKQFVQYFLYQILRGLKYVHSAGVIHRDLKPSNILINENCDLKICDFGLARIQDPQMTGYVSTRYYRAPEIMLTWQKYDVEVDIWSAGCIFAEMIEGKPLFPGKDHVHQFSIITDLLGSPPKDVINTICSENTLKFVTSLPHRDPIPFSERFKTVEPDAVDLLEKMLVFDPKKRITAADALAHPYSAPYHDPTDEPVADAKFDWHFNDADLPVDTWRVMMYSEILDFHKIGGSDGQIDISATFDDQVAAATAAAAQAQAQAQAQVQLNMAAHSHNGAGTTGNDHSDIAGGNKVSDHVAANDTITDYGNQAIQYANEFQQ
Put plainly: […] kinase assay, Sic1 phosphorylation, autoradiography.

Assay [4] has as its target T3, Hog1. The description is as above. This is another data set of the same source.
In assay [5] the target is T2, Pbs2. Put plainly: […] kinase assay, Hog1 phosphorylation, autoradiography. The conditions noted are these: [gamma-32P]-phenethyl-ATP as phosphodonor; GST-Hog1 substrate; pH 8.0; 30 °C.
The target in assay [6] is T3, Hog1. In words: […] kinase assay, Sic1 phosphorylation, autoradiography. The conditions noted are these: in vitro-activated Hog1as.

The inhibition is the drop in the measured response relative to a control, in per cent. A lower inhibition goes with little suppression. As a reminder, the IC50 is the point on the concentration scale where inhibition reaches its midpoint. High values mean lower potency, low ones higher potency.

Structures are written as SMILES.

In turn, `CC(C)n1nc(-c2ccc(F)cc2)c2c(N)ncnc21` [5b, 3-(4-Fluorophenyl)-1-isopropyl-1H-pyrazolo[3,4-d]pyrimidin-4-amine] registered an inhibition at 5 µM at Hog1 [1] of 94%. As for `CC(C)n1nc(C#Cc2ccccc2)c2c(N)ncnc21` [6a, 1-Isopropyl-3-(phenylethynyl)-1H-pyrazolo[3,4-d]pyrimidin-4-amine], the figures for the IC50 against Pbs2 [2] and on Hog1 [3] were 4.02 ± 0.26 nM and 37 ± 2.72 nM, respectively.

As to `CC(C)n1nc(C#Cc2ccc(F)cc2)c2c(N)ncnc21` [6b, 3-((4-fluorophenyl)ethynyl)-1-isopropyl-1H-pyrazolo[3,4-d]pyrimidin-4-amine], on Hog1 [4], the inhibition at 5 µM is more than 89%. For the same compound, at Pbs2 [5], the “% inhibition at 5 μM” value is on record as “Pbs2as was inhibited by all the compounds in vitro”.

Compound `CC(C)n1nc(C#Cc2ccc(Cl)cc2)c2c(N)ncnc21` [6c, 3-((4-chlorophenyl)ethynyl)-1-isopropyl-1H-pyrazolo[3,4-d]pyrimidin-4-amine] showed an inhibition at 5 µM on Hog1 [4] of more than 89%. For `Nc1ncnc2c1c(C#Cc1ccccc1)nn2CCO` [7a, 2-(4-amino-3-(phenylethynyl)-1H-pyrazolo[3,4-d]pyrimidin-1-yl)etanol], the “32P kinase assay, Sic1 phosphorylation, autoradiography” value on Hog1 [6] is reported as “in vitro these compounds were able to inhibit Hog1as as efficiently as 6a”.

Consider `Nc1ncnc2c1c(C#Cc1ccccc1)nn2CC(O)CO` (stereo not shown) [7b, 3-(4-amino-3-(phenylethynyl)-1H-pyrazolo[3,4-d]pyrimidin-1-yl)propane-1,2-diol], for which the “32P kinase assay, Sic1 phosphorylation, autoradiography” value on Hog1 [6] is “in vitro these compounds were able to inhibit Hog1as as efficiently as 6a”. For the compound `CC(C)(C)n1nc(Cc2cccc3ccccc23)c2c(N)ncnc21` [compound 9, 1-NM-PP1], the IC50 at Pbs2 [2] was 7.54 ± 0.25 nM; at Hog1 [3], 9.47 ± 0.38 nM.
